Results from patent publication US8178579B2, “Dioxanes and uses thereof” (President and Fellows of Harvard College, priority 2001, dated 2012).
pIC50: −log10 of the molar value.

Key:
HDAC1 = biological target: T1, HDAC1 (Homo sapiens, UniProt Q13547); experiment: HDAC assay, [3H]acetate-incorporated histones with immunoprecipitated FLAG-tagged HDAC1; type: biochemical; conditions: calculated IC50, data in duplicate, at least two experiments; read-out: IC50 against HDAC1
T1 construct: made in house; host or cells: TAg-Jurkat cells, transient transfection, then immunoprecipitation
Experimental: (§1) Cell culture and Transfections. TAg-Jurkat cells were transfected by electroporation with 5 μg of FLAG-epitope-tagged pBJ5 constructs (as described in ref. 5c) for expression of recombinant proteins. Cells were harvested 48 h posttransfection.
HDAC assays. [^3H]Acetate-incorporated histones were isolated from butyrate-treated HeLa cells by hydroxyapatite chromatography (as described in Tong, et al. Nature 1997, 395, 917-921.) Immunoprecipitates were incubated with 1.4 μg (10,000 dpm) histones for 3 h at 37° C. HDAC activity was determined by scintillation counting of the ethyl acetate-soluble [^3H]acetic acid (as described in Taunton, et al., Science 1996, 272, 408-411). Compounds were added in DMSO such that final assay concentrations were 1% DMSO. IC50s were calculated using Prism 3.0 software. Curve fitting was done without constraints using the program's Sigmoidal-Dose Response parameters. All data points were acquired in duplicate and IC50s are calculated from the composite results of at least two separate experiments.

[1] = tested on: cyclin B degradation pathway; experiment: Xenopus laevis oocyte extract assay of cyclin B degradation; conditions: 4 μL assay volume
Source text: (§2) Biologically active 1,3-dioxanes have been identified in phenotypic assays in cell culture, zebrafish, and Xenopus laevis oocyte extract (FIG. 22).

cyclin B degradation = cyclin B degradation assay in HeLa cells; type: cell-based; conditions: 30 μL assay volume
Source text: as §2

HDAC6 = biological target: T2, HDAC6 (Homo sapiens, UniProt Q9UBN7); experiment: HDAC assay, [3H]acetate-incorporated histones with immunoprecipitated FLAG-tagged HDAC6 (HDAC6F); type: biochemical; set-up: made in house; host or cells: TAg Jurkat cells, transient transfection, anti-FLAG M2 immunoprecipitation; conditions: calculated IC50, data in duplicate, at least two experiments; read-out: IC50 against HDAC6
T2 sequence (Q9UBN7 1-1215): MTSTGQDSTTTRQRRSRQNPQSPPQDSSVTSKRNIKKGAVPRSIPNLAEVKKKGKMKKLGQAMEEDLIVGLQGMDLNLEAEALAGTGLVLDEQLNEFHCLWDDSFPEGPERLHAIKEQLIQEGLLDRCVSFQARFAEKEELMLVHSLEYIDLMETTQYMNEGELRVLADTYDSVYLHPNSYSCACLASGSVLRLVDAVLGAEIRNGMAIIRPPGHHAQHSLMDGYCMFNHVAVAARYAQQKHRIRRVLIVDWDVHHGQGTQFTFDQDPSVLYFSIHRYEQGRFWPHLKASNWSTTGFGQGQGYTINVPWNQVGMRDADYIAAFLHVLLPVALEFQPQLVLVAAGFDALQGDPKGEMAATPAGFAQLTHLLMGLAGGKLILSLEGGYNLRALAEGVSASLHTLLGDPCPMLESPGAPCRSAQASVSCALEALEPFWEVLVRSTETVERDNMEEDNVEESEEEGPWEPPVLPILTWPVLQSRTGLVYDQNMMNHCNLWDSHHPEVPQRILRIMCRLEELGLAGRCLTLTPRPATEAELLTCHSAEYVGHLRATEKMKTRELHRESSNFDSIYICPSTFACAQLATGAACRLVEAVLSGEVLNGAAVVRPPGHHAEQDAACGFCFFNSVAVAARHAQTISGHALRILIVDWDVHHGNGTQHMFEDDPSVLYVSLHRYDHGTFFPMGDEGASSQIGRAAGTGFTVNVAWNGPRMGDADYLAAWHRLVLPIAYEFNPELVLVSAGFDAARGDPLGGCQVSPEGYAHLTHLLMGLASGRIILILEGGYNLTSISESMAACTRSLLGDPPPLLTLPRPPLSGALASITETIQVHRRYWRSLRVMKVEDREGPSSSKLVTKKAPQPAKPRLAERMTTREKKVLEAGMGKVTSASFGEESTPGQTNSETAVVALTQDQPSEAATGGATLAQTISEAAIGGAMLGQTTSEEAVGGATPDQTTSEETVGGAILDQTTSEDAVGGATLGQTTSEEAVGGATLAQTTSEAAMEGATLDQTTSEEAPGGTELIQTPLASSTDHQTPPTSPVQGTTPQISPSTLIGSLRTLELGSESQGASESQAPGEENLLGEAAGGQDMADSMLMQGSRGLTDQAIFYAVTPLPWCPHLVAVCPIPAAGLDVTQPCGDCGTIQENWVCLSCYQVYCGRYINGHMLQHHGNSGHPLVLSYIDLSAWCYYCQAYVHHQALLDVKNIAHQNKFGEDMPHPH
Experimental: as §1
HDAC assays. […] Compounds were added in DMSO such that final assay concentrations were 1% DMSO. IC50s were calculated using Prism 3.0 software. Curve fitting was done without constraints using the program's Sigmoidal-Dose Response parameters. All data points were acquired in duplicate and IC50s are calculated from the composite results of at least two separate experiments.
Tubulin and MAPs were isolated from bovine brain as described [See http://mitchison.med.harvard.edu/protocols/tubprep.html]. Whole brain and fractions from phosphocellulose chromatography were blotted for HDAC6 and acetylated α-tubulin. Cultured hippocampal neurons from dissociated 1-day old rat brains were transfected with an enhanced green fluorescent protein (EGFP)-actin construct at 4-5 days using the calcium phosphate method [E. N. Star, D. J. Kwiatkowski and V. N. Murthy, Nat. Neurosci. […] K. Miranti and M. E. Greenberg, J. Neurosci. […] Transfected cultures were allowed to grow for at least 48 h before the addition of experimental compounds.
[^3H]Acetate-incorporated histones were isolated from butyrate-treated HeLa cells as described [J. Taunton, C. […] Immunoprecipitates were incubated with acetylated histones and HDAC activity determined by scintillation counting as described [J. Taunton, C. […] TDAC assays were performed with immunoprecipitates using MAP-stabilized microtubules polymerized from MAP-rich tubulin fraction as described [C. […] Reactions were incubated (2 h) at 37° C., then incubated on ice (15 min).

α-tubulin deacetylation = conditions: cited from earlier work
[2] = tested on: α-tubulin acetylation in the presence of ITSA1; conditions: cited from earlier work
human FKBP12 = human FKBP12 (Homo sapiens, UniProt P62942); experiment: small molecule microarray protein-binding assay; conditions: labeled protein
Experimental: In addition to phenotypic assays, over fifty protein-binding assays have been performed with the 1,3-dioxane library using small molecule microarrays (MacBeath et al. J. Am. Chem. Soc. 1999, 121, 7967-7968; Peterson et al. Proc. Natl. Acad. Sci. U.S.A. 2000, 97, 12965-12969). The microarrays were constructed by covalent attachment of […] of each stock solution to a glass slide using a contact printing robot. Labeled proteins were used to probe the microarray for small molecule partners.

T1 sequence (Q13547 whole entry): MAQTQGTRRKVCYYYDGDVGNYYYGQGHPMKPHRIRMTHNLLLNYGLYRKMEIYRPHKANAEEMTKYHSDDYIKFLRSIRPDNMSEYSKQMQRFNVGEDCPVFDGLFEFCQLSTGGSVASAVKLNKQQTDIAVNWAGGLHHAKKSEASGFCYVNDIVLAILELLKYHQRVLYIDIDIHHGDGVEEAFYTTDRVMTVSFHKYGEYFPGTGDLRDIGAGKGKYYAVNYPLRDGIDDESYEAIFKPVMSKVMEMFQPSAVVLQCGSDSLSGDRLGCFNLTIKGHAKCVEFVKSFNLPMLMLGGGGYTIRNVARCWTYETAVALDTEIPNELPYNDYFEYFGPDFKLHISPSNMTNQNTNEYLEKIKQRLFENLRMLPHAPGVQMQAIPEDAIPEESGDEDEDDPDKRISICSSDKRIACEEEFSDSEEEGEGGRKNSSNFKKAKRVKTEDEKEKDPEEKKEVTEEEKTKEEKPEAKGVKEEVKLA
human FKBP12, sequence (P62942 whole entry): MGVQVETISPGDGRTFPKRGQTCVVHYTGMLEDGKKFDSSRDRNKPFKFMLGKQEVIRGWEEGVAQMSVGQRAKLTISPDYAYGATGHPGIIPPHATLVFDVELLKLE

C[C@H]1[C@@H](CN2CCC3(CC2)OCCO3)OC(c2cccc(NS(=O)(=O)c3ccccc3)c2)O[C@H]1c1ccc(CO)cc1 (mixture of isomers) [compound 10, (±)-N-[3-[(4S,5R,6R)-4-(1,4-dioxa-8-azaspiro[4.5]dec-8-ylmethyl)-6-[4-(hydroxymethyl)phenyl]-5-methyl-1,3-dioxan-2-yl]phenyl-benzenesulfonamide]
pIC50 (HDAC1): ~6.00 | activity in Xenopus laevis oocyte extract cyclin B degradation assay [1]: Neither set of compounds was active in both assay systems | activity in HeLa cell cyclin B degradation assay (cyclin B degradation): inhibitory activity | pIC50 (HDAC6): ~6.00

CC(=O)O[C@H]1C(=O)[C@@]2(C)[C@H]([C@H](OC(=O)c3ccccc3)[C@]3(O)C[C@H](OC(=O)[C@H](O)[C@@H](NC(=O)c4ccccc4)c4ccccc4)C(C)=C1C3(C)C)[C@]1(OC(C)=O)CO[C@@H]1C[C@@H]2O [taxol, Paclitaxel]
effect on α-tubulin acetylation, stated as known (α-tubulin deacetylation): increases α-tubulin acetylation due to direct stabilization of microtubules | suppression by ITSA1, stated as known [2]: is not suppressed by ITSA1

(αS)-2-acetyloxy)-N-[[4-[(4R,5S,6S)-4-[4-(hydroxymethyl)phenyl]-6-[[4,5-d]phenyl-2-oxazolyl)thio]methyl]61,3-dioxan-2-yl]phenyl]methyl-propionamide [compound 14]
binding to human FKBP12 on small molecule microarray (human FKBP12): bind to human FKBP12
